Measured values taken from patent publication US8959984B2, “Proteome-wide quantification of small molecule binding to cellular target proteins” (priority 2007, dated 2015).
Where two headings read alike, the source gives them in different places.

Key:
BRD3 = BRD3 (Homo sapiens, UniProt Q15059); experiment: binding to immobilized V16742 (IVA1/IVA2, HeLa lysate, MS)
DCI (IPI00300567) = target: T1, DCI (IPI00300567) (Homo sapiens, UniProt P42126); experiment: binding to VI16742 beads (HeLa lysate, SILAC MS)
T1 construct: endogenous in cells; host or cells: HeLa S3
T1 sequence (P42126 42-302): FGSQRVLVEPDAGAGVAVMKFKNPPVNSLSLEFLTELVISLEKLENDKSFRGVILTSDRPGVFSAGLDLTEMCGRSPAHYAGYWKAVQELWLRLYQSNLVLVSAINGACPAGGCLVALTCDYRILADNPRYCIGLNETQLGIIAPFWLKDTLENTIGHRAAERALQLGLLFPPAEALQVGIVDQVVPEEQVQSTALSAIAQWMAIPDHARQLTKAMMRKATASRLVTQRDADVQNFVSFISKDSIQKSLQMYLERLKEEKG
Summary of the method: (§1)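 Affinity capture: immobilised pyrido[2,3-d]pyrimidine kinase inhibitor, broad selectivity. Specific retention on the resin counted as binding.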

FN3KRP (IPI00099986) = target: T2, FN3KRP (IPI00099986) (Homo sapiens, UniProt Q9HA64); experiment: binding to VI16742 beads (HeLa lysate, SILAC MS)
T2 construct: endogenous in cells; host or cells: HeLa S3
T2 sequence (Q9HA64 1-309): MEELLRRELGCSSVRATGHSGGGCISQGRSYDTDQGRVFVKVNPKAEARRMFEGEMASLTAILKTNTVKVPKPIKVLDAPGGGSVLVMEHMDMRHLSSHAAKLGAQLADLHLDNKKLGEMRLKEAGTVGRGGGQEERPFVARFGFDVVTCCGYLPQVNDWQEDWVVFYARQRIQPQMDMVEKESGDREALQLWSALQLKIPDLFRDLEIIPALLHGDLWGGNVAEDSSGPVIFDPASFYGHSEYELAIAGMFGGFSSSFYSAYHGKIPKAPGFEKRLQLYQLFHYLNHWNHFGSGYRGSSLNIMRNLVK
Summary of the method: as §1

XTP3TPA (IPI00012197) = target: T3, XTP3TPA (IPI00012197) (Homo sapiens, UniProt Q9H773); experiment: binding to VI16742 beads (HeLa lysate, SILAC MS)
T3 construct: endogenous in cells; host or cells: HeLa S3
T3 sequence (Q9H773 1-170): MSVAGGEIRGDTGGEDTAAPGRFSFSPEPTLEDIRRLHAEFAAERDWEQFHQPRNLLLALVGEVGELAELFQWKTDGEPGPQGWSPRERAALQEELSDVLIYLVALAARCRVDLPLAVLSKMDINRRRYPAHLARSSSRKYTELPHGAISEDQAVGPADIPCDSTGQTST
Summary of the method: as §1

PITSLRE = experiment: binding to immobilized V16742 (IVA1/IVA2, HeLa lysate, MS); parameters: species or system human
RIOK2 = target: T4, RIOK2 (Homo sapiens, UniProt Q9BVS4); experiment: as above
T4 construct: endogenous in cells; host or cells: HeLa S3

BUB1 = target: T5, BUB1 (Homo sapiens, UniProt O43683); experiment: as above
T5 construct: endogenous in cells; host or cells: HeLa S3

CDK7 = target: T6, CDK7 (Homo sapiens, UniProt P50613); experiment: as above
T6 construct: endogenous in cells; host or cells: HeLa S3

JNK2, RIPK2, ERK2, ROCK2 = experiment: immunoblot of IVA1/IVA2 eluates from V16742 matrix, HeLa lysate; type: binding, human
Method: The proteins retained on the beads were immunoblotted with specific antibodies for JNK2, RIPK2, ERK2 and ROCK2, the targets with affinities ranging from high to very low as identified/predicted by mass spectrometry.
Immunoblotting of affinity chromatography eluates from either IVA1 or IVA2 setting was performed with the following antibodies: Rabbit anti-casein kinase Iα, Rabbit anti-JNK2, Rabbit anti-ROCK-II (all from Cell Signaling Technology, Inc.), anti-GSK3β, anti-RIPK2, anti-GAK, anti-ERK2 (Santa Cruz)

TLK2 = target: T7, TLK2 (Homo sapiens, UniProt Q86UE8); experiment: binding to immobilized V16742 (IVA1/IVA2, HeLa lysate, MS)
T7 construct: endogenous in cells; host or cells: HeLa S3

[1] = target: p38a (MAPK14, IPI00002857) (Homo sapiens, UniProt Q16539); experiment: gefitinib competition against AX14596 beads (HeLa lysate, SILAC MS); type: binding
MNK1 (MKNK1) = MNK1 (MKNK1) (Homo sapiens, UniProt Q9BUB5)
[2] = control beads vs first incubation
[3] = average of two experiments, read-out: Kd Avg

T6 sequence (P50613 whole entry): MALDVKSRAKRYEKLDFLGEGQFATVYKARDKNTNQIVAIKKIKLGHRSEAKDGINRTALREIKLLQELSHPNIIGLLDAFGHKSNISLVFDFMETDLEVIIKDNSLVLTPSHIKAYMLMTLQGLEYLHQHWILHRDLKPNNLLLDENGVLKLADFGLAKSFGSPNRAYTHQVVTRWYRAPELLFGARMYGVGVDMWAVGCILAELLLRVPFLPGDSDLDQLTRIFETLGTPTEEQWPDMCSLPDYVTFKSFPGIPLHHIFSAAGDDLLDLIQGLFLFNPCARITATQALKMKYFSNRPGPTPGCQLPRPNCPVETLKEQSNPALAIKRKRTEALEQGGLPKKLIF
T7 sequence (Q86UE8 whole entry): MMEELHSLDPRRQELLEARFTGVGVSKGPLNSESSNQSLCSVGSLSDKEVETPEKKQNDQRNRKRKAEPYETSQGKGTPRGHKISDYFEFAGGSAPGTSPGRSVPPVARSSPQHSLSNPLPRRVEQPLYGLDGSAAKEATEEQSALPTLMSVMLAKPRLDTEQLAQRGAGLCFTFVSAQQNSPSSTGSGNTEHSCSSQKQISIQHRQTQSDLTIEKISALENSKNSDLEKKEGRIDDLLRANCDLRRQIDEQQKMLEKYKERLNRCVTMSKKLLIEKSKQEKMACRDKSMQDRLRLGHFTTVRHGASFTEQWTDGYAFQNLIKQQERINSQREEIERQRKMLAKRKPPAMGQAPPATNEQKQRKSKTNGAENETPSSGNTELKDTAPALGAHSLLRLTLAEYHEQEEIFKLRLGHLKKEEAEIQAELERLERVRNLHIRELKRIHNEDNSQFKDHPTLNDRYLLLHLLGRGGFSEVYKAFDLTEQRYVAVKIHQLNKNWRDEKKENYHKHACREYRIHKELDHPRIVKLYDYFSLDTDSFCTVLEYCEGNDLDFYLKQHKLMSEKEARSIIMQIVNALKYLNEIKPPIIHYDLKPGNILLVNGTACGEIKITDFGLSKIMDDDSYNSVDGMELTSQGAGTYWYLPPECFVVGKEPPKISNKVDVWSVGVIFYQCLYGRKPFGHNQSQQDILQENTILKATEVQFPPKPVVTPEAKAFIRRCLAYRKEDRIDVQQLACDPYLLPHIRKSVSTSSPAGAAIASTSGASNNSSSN
p38a (MAPK14, IPI00002857), sequence (Q16539 whole entry): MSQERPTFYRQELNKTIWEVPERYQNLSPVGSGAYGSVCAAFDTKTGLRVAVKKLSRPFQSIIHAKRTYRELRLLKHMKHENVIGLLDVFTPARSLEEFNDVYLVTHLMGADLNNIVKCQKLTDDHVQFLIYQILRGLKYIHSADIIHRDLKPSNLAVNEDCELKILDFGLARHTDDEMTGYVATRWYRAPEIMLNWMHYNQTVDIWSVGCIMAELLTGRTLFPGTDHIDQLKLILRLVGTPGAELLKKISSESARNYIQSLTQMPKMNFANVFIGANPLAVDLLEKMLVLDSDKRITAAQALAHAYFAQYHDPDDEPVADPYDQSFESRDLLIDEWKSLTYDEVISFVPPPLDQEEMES
T4 sequence (Q9BVS4 whole entry): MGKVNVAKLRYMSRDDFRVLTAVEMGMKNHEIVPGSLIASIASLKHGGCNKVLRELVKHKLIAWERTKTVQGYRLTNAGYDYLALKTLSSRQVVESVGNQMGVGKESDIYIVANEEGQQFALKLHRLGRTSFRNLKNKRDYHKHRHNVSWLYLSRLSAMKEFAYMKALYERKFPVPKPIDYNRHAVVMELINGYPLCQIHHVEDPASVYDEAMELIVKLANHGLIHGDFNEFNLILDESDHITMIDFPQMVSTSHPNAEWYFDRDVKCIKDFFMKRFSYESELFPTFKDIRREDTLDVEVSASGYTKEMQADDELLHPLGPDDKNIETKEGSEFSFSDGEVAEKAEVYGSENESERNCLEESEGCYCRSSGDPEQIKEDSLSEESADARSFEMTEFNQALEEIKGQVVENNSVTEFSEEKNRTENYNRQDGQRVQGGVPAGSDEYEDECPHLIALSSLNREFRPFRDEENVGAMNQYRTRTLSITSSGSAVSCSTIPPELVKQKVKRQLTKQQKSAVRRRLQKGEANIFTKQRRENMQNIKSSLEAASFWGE
MNK1 (MKNK1), sequence (Q9BUB5 whole entry): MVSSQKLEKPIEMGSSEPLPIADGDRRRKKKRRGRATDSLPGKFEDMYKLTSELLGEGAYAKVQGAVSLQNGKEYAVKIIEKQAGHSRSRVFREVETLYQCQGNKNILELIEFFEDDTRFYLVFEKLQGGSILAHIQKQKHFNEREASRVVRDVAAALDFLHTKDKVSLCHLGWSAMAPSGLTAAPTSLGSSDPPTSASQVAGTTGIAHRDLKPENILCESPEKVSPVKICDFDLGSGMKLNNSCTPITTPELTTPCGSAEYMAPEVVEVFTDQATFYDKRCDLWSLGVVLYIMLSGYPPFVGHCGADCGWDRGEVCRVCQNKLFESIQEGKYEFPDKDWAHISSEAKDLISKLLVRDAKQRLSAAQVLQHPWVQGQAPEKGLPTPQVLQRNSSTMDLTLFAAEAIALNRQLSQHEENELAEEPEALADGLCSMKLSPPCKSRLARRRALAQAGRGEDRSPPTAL
BRD3, sequence (Q15059 whole entry): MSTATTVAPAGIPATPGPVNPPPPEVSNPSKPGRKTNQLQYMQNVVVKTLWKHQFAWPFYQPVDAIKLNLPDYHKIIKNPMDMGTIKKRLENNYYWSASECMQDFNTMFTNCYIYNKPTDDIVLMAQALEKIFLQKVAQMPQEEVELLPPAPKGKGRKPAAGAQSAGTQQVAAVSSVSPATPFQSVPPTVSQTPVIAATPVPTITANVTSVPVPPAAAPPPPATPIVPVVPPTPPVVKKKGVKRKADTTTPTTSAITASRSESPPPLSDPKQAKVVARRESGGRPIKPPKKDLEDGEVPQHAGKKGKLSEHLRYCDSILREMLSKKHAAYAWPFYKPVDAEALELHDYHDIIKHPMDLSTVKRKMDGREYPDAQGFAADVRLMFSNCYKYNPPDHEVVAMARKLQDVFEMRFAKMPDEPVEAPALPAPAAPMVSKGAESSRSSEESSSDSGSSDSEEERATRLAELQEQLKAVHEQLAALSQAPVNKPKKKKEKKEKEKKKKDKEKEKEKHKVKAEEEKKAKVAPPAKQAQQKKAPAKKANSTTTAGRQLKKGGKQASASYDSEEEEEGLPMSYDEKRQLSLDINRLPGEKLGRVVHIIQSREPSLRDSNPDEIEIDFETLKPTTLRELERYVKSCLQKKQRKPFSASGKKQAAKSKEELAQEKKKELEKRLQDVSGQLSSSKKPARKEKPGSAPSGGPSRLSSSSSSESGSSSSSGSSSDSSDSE
T5 sequence (O43683 whole entry): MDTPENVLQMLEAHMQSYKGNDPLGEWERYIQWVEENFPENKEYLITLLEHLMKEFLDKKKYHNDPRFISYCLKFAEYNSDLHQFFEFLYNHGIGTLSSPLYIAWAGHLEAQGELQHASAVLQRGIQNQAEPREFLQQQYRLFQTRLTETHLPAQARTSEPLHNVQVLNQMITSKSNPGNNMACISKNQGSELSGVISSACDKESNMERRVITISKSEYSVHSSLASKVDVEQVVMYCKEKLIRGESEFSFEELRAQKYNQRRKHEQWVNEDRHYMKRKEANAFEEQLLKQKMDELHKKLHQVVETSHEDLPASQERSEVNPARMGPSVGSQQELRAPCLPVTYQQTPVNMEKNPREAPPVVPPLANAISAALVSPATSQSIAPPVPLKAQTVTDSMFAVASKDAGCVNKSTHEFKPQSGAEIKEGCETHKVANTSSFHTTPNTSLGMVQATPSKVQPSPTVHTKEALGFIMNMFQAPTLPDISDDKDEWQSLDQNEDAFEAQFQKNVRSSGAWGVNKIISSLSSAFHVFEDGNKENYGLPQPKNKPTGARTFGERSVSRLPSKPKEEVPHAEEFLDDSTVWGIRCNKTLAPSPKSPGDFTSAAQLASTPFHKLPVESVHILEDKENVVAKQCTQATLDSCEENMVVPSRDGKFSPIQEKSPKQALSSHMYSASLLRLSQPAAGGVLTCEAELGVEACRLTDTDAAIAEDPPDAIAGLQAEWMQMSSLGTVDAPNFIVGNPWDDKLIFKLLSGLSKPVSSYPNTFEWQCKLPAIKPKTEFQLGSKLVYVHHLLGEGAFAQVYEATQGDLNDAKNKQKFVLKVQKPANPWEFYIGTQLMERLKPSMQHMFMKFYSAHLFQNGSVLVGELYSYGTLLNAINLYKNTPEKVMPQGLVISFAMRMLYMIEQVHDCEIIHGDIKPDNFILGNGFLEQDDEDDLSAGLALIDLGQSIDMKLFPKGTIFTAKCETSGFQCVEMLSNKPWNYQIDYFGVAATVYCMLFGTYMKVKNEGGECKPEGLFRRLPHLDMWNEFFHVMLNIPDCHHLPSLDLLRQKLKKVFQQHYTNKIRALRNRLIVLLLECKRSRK

In the case of `CC(C)n1c(=O)ccc2cnc(Nc3ccc(OCCN)cc3)nc21` [compound 16742], the “Percent bound at 1.87 μM 16742 conc” value (BRD3; EXPERIMENT 1) is reported as 0.00%, the “Percent bound at 8.74 μM 16742 conc” value (BRD3; EXPERIMENT 1) is reported as 0.00% and the “Percent bound at 52 μM 16742 conc” value (BRD3; EXPERIMENT 1) is reported as 71.55%. For the same compound, the Kd (BRD3; EXPERIMENT 1, read-out: Kd) was 37 µM, the “Percent bound at 1.87 μM 16742 conc” value (BRD3; EXPERIMENT 2) was 8.24% and the “Percent bound at 8.74 μM 16742 conc” value (BRD3; EXPERIMENT 2) was 11.86%. For the same compound, the “Percent bound at 52 μM 16742 conc” value (BRD3; EXPERIMENT 2) was 65.82%, the Kd (BRD3; EXPERIMENT 2, read-out: Kd) was 33.9 µM and the Kd (BRD3; read-out: Kd Avg) was 35.4 µM.
With `CC(C)n1c(=O)ccc2cnc(Nc3ccc(OCCN)cc3)nc21` [V16742] the “r (3 MG/1 MG LYSATE)” value (DCI (IPI00300567); 3 mg vs 1 mg lysate) was 3.25, the “r (5 h/2.5 h INC. TIME)” value (DCI (IPI00300567); 5 h vs 2.5 h incubation time) was 1.68 and the “rAVERAGE (CTRL/1 INC)” value (DCI (IPI00300567); [2]) was 0.04. For the same compound, the Ki (DCI (IPI00300567); immobilized VI16742) was 236 µM, the “rAVERAGE (2 INC/1 INC)” value (DCI (IPI00300567); second vs first incubation) was 0.82 and the “r (3 MG/1 MG LYSATE)” value (FN3KRP (IPI00099986); 3 mg vs 1 mg lysate) was 2.02. The “r (5 h/2.5 h INC. TIME)” value (FN3KRP (IPI00099986); 5 h vs 2.5 h incubation time) was 0.95, the “rAVERAGE (CTRL/1 INC)” value (FN3KRP (IPI00099986); [2]) was 0.07 and the Ki (FN3KRP (IPI00099986); immobilized VI16742) was 117 µM. The “rAVERAGE (2 INC/1 INC)” value (FN3KRP (IPI00099986); second vs first incubation) was 0.69, the “r (3 MG/1 MG LYSATE)” value (XTP3TPA (IPI00012197); 3 mg vs 1 mg lysate) was 3.39 and the “r (5 h/2.5 h INC. TIME)” value (XTP3TPA (IPI00012197); 5 h vs 2.5 h incubation time) was 1.04. For the same compound, the “rAVERAGE (CTRL/1 INC)” value (XTP3TPA (IPI00012197); [2]) was 0.08, the Ki (XTP3TPA (IPI00012197); immobilized VI16742) was 159 µM and the “rAVERAGE (2 INC/1 INC)” value (XTP3TPA (IPI00012197); second vs first incubation) was 0.75. For the same compound, the “Percent bound at various 16742 conc” value (PITSLRE; Experiment 1, 1.87 μM 16742) was 1.13%, the “Percent bound at various 16742 conc” value (PITSLRE; Experiment 1, 8.74 μM 16742) was 12.03% and the “Percent bound at various 16742 conc” value (PITSLRE; Experiment 1, 52 μM 16742) was 49.06%. The Kd (PITSLRE; Experiment 1, read-out: Kd) was 56.1 µM, the “Percent bound at various 16742 conc” value (PITSLRE; Experiment 2, 1.87 μM 16742) was 2.00% and the “Percent bound at various 16742 conc” value (PITSLRE; Experiment 2, 8.74 μM 16742) was 4.78%. The “Percent bound at various 16742 conc” value (PITSLRE; Experiment 2, 52 μM 16742) was 46.71%, the Kd (PITSLRE; Experiment 2, read-out: Kd) was 66.7 µM and the Kd (PITSLRE; [3]) was 61.4 µM. The “Percent bound at various 16742 conc” value (RIOK2; Experiment 1, 8.74 μM 16742) was 11.61%, the “Percent bound at various 16742 conc” value (RIOK2; Experiment 1, 52 μM 16742) was 58.06% and the Kd (RIOK2; Experiment 1, read-out: Kd) was 42.6 µM. The “Percent bound at various 16742 conc” value (RIOK2; Experiment 2, 1.87 μM 16742) was 1.55%, the “Percent bound at various 16742 conc” value (RIOK2; Experiment 2, 8.74 μM 16742) was 7.91% and the “Percent bound at various 16742 conc” value (RIOK2; Experiment 2, 52 μM 16742) was 48.34%. The Kd (RIOK2; Experiment 2, read-out: Kd) was 60.8 µM, the Kd (RIOK2; [3]) was 51.7 µM and the “Percent bound at various 16742 conc” value (BUB1; Experiment 1, 1.87 μM 16742) was 2.46%. For the same compound, the “Percent bound at various 16742 conc” value (BUB1; Experiment 1, 8.74 μM 16742) was 11.95%, the “Percent bound at various 16742 conc” value (BUB1; Experiment 1, 52 μM 16742) was 50.46% and the “Percent bound at various 16742 conc” value (BUB1; Experiment 2, 52 μM 16742) was 47.87%. For the same compound, the Kd (BUB1; single Kd value, obtained from only one experiment) was 53.4 µM, the “Percent bound at various 16742 conc” value (CDK7; Experiment 1, 1.87 μM 16742) was 5.76% and the “Percent bound at various 16742 conc” value (CDK7; Experiment 1, 8.74 μM 16742) was 22.04%. For the same compound, the “Percent bound at various 16742 conc” value (CDK7; Experiment 1, 52 μM 16742) was 53.96%, the Kd (CDK7; Experiment 1, read-out: Kd) was 39.8 µM and the “Percent bound at various 16742 conc” value (CDK7; Experiment 2, 1.87 μM 16742) was 2.34%. For the same compound, the “Percent bound at various 16742 conc” value (CDK7; Experiment 2, 8.74 μM 16742) was 13.18%, the “Percent bound at various 16742 conc” value (CDK7; Experiment 2, 52 μM 16742) was 45.57% and the Kd (CDK7; Experiment 2, read-out: Kd) was 61.5 µM. The Kd (CDK7; [3]) was 50.7 µM, the “interaction of kinases with V16742 matrix, immunoblot” value (JNK2, RIPK2, ERK2, ROCK2) was “specifically interacted with the V16742 matrix” and the “Percent bound at various 16742 conc” value (TLK2; Experiment 1, 1.87 μM 16742) was 2.49%. The “Percent bound at various 16742 conc” value (TLK2; Experiment 1, 8.74 μM 16742) was 3.89%, the “Percent bound at various 16742 conc” value (TLK2; Experiment 1, 52 μM 16742) was 58.72% and the Kd (TLK2; Experiment 1, read-out: Kd) was 47.3 µM. For the same compound, the “Percent bound at various 16742 conc” value (TLK2; Experiment 2, 1.87 μM 16742) was 1.24%, the “Percent bound at various 16742 conc” value (TLK2; Experiment 2, 8.74 μM 16742) was 3.73% and the “Percent bound at various 16742 conc” value (TLK2; Experiment 2, 52 μM 16742) was 41.78%. The Kd (TLK2; Experiment 2, read-out: Kd) was 80 µM and the Kd (TLK2; [3]) was 63.7 µM.
In the case of `COc1cc2ncnc(Nc3ccc(F)c(Cl)c3)c2cc1OCCCN1CCOCC1` [gefitinib], the “rAVERAGE (10 nM/0 nM Gef.)” value [1] is reported as 0.88, the “rAVERAGE (100 nM/0 nM Gef.)” value [1] is reported as 1.04 and the “rAVERAGE (1000 nM/0 nM Gef.)” value [1] is reported as 0.92. For the same compound, the “rAVERAGE (10000 nM/0 nM Gef.)” value [1] was 0.64, the “rAVERAGE (10 nM/0 nM Gef.)” value (MNK1 (MKNK1)) was 0.76 and the “rAVERAGE (100 nM/0 nM Gef.)” value (MNK1 (MKNK1)) was 1.00. The “rAVERAGE (1000 nM/0 nM Gef.)” value (MNK1 (MKNK1)) was 0.73 and the “rAVERAGE (10000 nM/0 nM Gef.)” value (MNK1 (MKNK1)) was 0.37.
